Assay results reported in publication PMC11435393, “Novel Pyrrole Derivatives as Multi-Target Agents for the Treatment of Alzheimer’s Disease: Microwave-Assisted Synthesis, In Silico Studies and Biological Evaluation” (Pharmaceuticals, 2024).
Several values for one entry are separate records, joined by “and”; a condition that tells them apart may be missing. Equal entries are not always repeated. Structures can show the parent of a compound that is named as a salt.

Key:
[1] = PAMPA-BBB permeability test
Description: Thus, the passive diffusion of vh0 was evaluated using an in vitro permeability test.
The in vitro Parallel Artificial Permeability Assay—blood brain barrier (PAMPA-BBB) test was carried out by PAMPA Permeability Analyzer (pIONInc, Billerica, MA, USA). The permeabilities (Pe) of the dual-acting pyrrole-based hydrazide—vh0, were evaluated considering the manufacturer BBB Protocol. Initially, the stock solutions of vh0 and reference molecules were dissolved in DMSO and diluted with Prisma HT buffer pH 7.4 (Pion Inc. Billerica, MA, USA) to reach a concentration of 50 μM. The well plates were filled with 200 µL BSB (Brain Skin Buffer). The incubation was established for 4 h at 25 °C with no stirring. The permeability of the structures was evaluated by accessing their concentrations in both the donor and acceptor phases spectrophotometrically. The permeability coefficients were calculated by PAMPA Explorer Command Software and presented as –logPe.

[2] = cited from earlier work
[3] = DPPH radical scavenging assay; details: 1 mg/mL, 517 nm
Description: The test observes the hydrogen donating capacity of the molecules which is shown with a decrease in the absorbance at 517 nm. The DPPH radical scavenging activity of the title hydrazide vh0 and hydrazide–hydrazones vh1-4 was determined in 1 mg/mL concentration with Trolox applied as a standard.
The radical scavenging activities of the title compounds were examined with a DPPH (2,2- diphenyl-1-picrylhydrazyl) test. A solution of DPPH has an intense violet color and a UV absorption at 515 nm could be observed. The presence of an antioxidant leads to visible decolorization of the sample and the absorption could be measured. Here, the scavenging rate of the DPPH radical was carried out by the widely employed classical protocol of Brand-Williams et al.. A 1 mg/mL of the title compounds were reacted with methonol solution of the DPPH (1 mmol/L). Thereafter, the obtained mixture was left in a dark palce for 15 min. The absorbance was assessed at 517 nm. Three measurements were conducted for each sample and Trolox was used as a standard.

[4] = ABTS radical scavenging assay; details: 1 mg/mL, 734 nm
Description: The radical scavenging properties of the newly synthesized structures were also calculated with the help of a ABTS test according to a modified method of Arnao et al.. The tests were conducted in methanol at room temperature. The absorbance of the solutions was measured at λ = 734 nm. The stable ABTS radical was produced by mixing 7 mmol/L solution of ABTS and 2.4 mmol/L solution of potassium persulphate, which were allowed to react for 14 h in the dark at room temperature. The working solutions were made of 2 mL of the stock solution diluted in 50 mL of methanol with an absorbance of 0.30 ± 0.04 units at […]. In total, 1 mL of the ABTS working solution was allowed to react with the pyrrole derivatives with concentrations of 1 mg/mL for 10 min. The inhibition percentage was calculated by applying the same formula as the DPPH assay.

human recombinant MAOA = target: T1, human recombinant MAOA (Homo sapiens, UniProt P21397); assay: hMAOA enzyme assay (Amplex UltraRed, fluorimetric); format: biochemical; details: mean ± SD; read-out: IC50 (EC50) hMAOA
T1 sequence (P21397 1-527): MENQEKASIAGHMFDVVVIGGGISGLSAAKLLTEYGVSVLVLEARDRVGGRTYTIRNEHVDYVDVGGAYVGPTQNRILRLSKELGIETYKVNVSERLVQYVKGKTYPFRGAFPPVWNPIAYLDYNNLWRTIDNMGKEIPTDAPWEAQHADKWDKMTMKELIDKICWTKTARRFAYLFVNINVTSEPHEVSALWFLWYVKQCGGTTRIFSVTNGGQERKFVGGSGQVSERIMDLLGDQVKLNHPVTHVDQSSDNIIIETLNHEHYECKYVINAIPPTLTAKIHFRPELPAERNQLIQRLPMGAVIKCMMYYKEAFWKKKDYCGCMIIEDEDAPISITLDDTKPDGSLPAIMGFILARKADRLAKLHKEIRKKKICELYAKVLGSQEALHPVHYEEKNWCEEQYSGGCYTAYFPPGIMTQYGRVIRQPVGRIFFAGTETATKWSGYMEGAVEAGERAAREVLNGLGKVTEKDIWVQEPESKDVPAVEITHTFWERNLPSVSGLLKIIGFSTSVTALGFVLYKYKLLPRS
Description: To observe the selectivity index of the title compounds, in vitro tests against MAO-A were carried out. The novel molecules were tested in the same concentrations as applied in the MAO-B evaluations—1 μM.
(§1) The examined compounds were evaluated for possible inhibitory capacity on human recombinant MAOA and MAOB enzymes by using the Amplex UltraRed (Sigma Aldrih and Acros, Merck KGaA, Darmstadt, Germany) reagent with some modifications. All reagents were prepared in accordance with the producer’s instructions. As a substrate the tyramine hydrochloride was used for hMAO-B and p-benzylamine for hMAO-A. The reaction mixture included a stock solution of Amplex Red, the reaction buffer at pH 7.4 and the storage solution of horseradish peroxidase (10 U/mL). Five concentrations of the exam compounds were applied. The combination: compounds + hMAOA/B was placed in a 96-well plate, and then the plate was incubated for 30 min (dark, at 37 °C). The reaction was started by the addition of 50 μL of the mix solution: Amplex Red, horseradish peroxidase, and tyramine/p-benzylamine, as an enzyme substrate, in the reaction buffer. The fluorescence was measured every 30 min until 150 min, in dark, while shaking the reaction mixture at constant temperature of 37 °C. The fluorimetric measurements were assessed using a Synergy 2 Microplate Reader (BioTek, Winooski, VT, USA).
(§2) The in vitro results (MAO-A, MAO-B and AChE inhibitory capacities) were expressed as a mean ± SD (n = 3). Values of p < 0.05 were considered statistically significant.

eeAChE = eeAChE (Electrophorus electricus, UniProt O42275); assay: biochemical; details: for inhibition at 10 µM: read-out: AChE inhibition; for IC50 / IC50 (EC50) AChE: mean ± SD; for IC50: read-out: IC50 (EC50) AChE; for inhibition at 10 µM / AChE inhibition: 10 μM
Chain of eeAChE (O42275 24-633): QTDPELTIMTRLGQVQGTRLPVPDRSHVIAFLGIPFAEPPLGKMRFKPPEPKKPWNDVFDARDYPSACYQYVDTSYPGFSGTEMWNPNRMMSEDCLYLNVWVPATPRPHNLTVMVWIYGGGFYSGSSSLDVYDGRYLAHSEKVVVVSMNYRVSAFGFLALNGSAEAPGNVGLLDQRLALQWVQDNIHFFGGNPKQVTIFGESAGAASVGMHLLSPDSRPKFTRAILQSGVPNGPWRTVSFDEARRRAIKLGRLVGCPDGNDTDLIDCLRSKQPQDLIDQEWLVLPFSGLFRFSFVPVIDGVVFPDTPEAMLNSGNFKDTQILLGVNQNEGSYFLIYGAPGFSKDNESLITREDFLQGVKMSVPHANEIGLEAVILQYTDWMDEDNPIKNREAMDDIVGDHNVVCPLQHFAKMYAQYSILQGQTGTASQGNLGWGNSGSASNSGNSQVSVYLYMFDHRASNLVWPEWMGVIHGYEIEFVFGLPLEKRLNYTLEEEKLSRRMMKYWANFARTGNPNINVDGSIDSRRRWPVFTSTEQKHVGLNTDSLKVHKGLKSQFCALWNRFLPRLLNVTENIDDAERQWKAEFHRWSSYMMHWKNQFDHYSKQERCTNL
Description: The AChE potentials of the new valine-based molecules were evaluated according to a modified Ellman’s method. Initially, stock solutions (1 mg/mL) of the new structures were diluted in DMSO and five solutions were prepared by dilutions in order to access the inhibitory potential in different concentrations. Thereafter, the pyrrole-based molecules were incubated with sodium phosphate buffer, and AChE solution for ten minutes at 37 °C. The reaction was started by the addition of 5,5-dithio-bis-(2-nitrobenzoic acid) (DTNB) (10 mM; 20 μL) and acetylthiocholine iodide (14 mM; 20 μL). […] The percent inhibition activity was measured against the blank probe. Donepezil was utilized as a standart acetylcholinesterase inhibitor. The results were expressed as a mean ± SD (n = 3). Values of p < 0.05 were observed as statistically significant.
as §2

human recombinant MAOB = target: T2, human recombinant MAOB (Homo sapiens, UniProt P27338); assay: biochemical; format: biochemical; details: for hMAOB inhibition (decrease of hMAOB activity vs control): 1 μM; for IC50: mean ± SD, 2 h exposure, read-out: IC50 (EC50) hMAOB
T2 sequence (P27338 1-520): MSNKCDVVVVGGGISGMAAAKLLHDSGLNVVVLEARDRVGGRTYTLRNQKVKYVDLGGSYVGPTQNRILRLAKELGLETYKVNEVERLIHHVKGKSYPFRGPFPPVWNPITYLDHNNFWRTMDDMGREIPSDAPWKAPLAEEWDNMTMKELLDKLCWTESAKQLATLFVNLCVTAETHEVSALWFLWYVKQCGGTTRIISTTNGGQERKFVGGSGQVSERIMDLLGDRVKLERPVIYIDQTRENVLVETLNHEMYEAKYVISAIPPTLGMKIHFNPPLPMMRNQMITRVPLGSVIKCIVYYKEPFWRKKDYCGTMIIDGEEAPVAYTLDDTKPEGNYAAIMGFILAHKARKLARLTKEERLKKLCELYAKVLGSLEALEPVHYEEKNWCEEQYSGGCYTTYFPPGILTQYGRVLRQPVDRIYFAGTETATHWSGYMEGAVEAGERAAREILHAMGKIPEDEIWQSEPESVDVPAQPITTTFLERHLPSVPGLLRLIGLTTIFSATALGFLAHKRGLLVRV
Description: The title compounds were tested for hMAOB activities by an in vitro method.
as §1, §2

CC(C)NCC(O)COc1cccc2ccccc12 (stereo not drawn) [Propranolol HCl, propranolol hydrochloride, reference compound]
PAMPA BBB −logPe ([1]; PAMPA, 4 h, 50 μM, pH 7.4): 4.949 ± 0.003 | PAMPA BBB −logPe Literature [2]: 3.7

Cc1c(C)c2c(c(C)c1O)CCC(C)(C(=O)O)O2 (stereo not drawn) [Trolox, reference compound]
DPPH radical scavenging activity [3]: 90.07% | ABTS radical-binding activity [4]: 100%

CCOC(=O)c1cc(-c2ccc(Br)cc2)n(C(C(=O)NN)C(C)C)c1C (stereo not drawn) [vh0]
BBB permeability class ([1]; PAMPA-BBB): medium (When 6 < –logPe < 5 the molecule is identified with a medium permeability) | PAMPA BBB −logPe ([1]; pH 7.4, 50 μM, 4 h at 25 °C): 5.451 and 5.451 ± 0.005 | DPPH radical scavenging activity [3]: 76.10% | IC50 (human recombinant MAOA): > 100 µM | inhibition at 10 µM (eeAChE): 62% | IC50 (eeAChE): 4.15 ± 1.31 µM | SI: hMAOB selectivity index = IC50(hMAO-A)/IC50(hMAO-B) (human recombinant MAOB): >150 | hMAOB inhibition (decrease of hMAOB activity vs control) (human recombinant MAOB): 30% | IC50 (human recombinant MAOB): 0.665 ± 0.2 µM | ABTS radical-binding activity [4]: 99.40%

CCOC(=O)c1cc(-c2ccc(Br)cc2)n(C(C(=O)N/N=C/c2ccc(Cl)cc2)C(C)C)c1C (stereo not drawn) [vh1]
IC50 (human recombinant MAOA): > 100 µM | inhibition at 10 µM (eeAChE): 19% | IC50 (eeAChE): 18.8 ± 0.91 µM | SI: hMAOB selectivity index = IC50(hMAO-A)/IC50(hMAO-B) (human recombinant MAOB): >134 | hMAOB inhibition (decrease of hMAOB activity vs control) (human recombinant MAOB): moderate activity | IC50 (human recombinant MAOB): 0.744 ± 0.18 µM | ABTS radical-binding activity [4]: 73.67%

CCOC(=O)c1cc(-c2ccc(Br)cc2)n(C(C(=O)N/N=C/c2cccc(F)c2)C(C)C)c1C (stereo not drawn) [vh2]
IC50 (human recombinant MAOA): > 100 µM | AChE inhibition (eeAChE): weak AChE blocking activity | IC50 (EC50) AChE (eeAChE): inactive | IC50 (eeAChE): > 100 µM | SI: hMAOB selectivity index = IC50(hMAO-A)/IC50(hMAO-B) (human recombinant MAOB): >1 | IC50 (human recombinant MAOB): > 100 µM

CCOC(=O)c1cc(-c2ccc(Br)cc2)n(C(C(=O)N/N=C/c2ccc(OC)cc2)C(C)C)c1C (stereo not drawn) [vh3]
IC50 (human recombinant MAOA): > 100 µM | AChE inhibition (eeAChE): weak AChE blocking activity | inhibition at 10 µM (eeAChE): 26% | IC50 (eeAChE): 16.3 ± 2.15 µM | SI: hMAOB selectivity index = IC50(hMAO-A)/IC50(hMAO-B) (human recombinant MAOB): >1 | IC50 (human recombinant MAOB): > 100 µM | ABTS radical-binding activity [4]: 58.27%

CCOC(=O)c1cc(-c2ccc(Br)cc2)n(C(C(=O)N/N=C/c2ccc(OC)cc2OC)C(C)C)c1C (stereo not drawn) [vh4]
IC50 (human recombinant MAOA): > 100 µM | IC50 (EC50) AChE (eeAChE): inactive | IC50 (eeAChE): > 100 µM | SI: hMAOB selectivity index = IC50(hMAO-A)/IC50(hMAO-B) (human recombinant MAOB): >1 | IC50 (human recombinant MAOB): > 100 µM
